Measurements taken from article PMC3312352, “Peptides of the Constant Region of Antibodies Display Fungicidal Activity” (PLoS ONE, 2012).
Where two headings read alike, the source gives them in different places. Ends that are not written are not given here. Peptide text beside a SMILES is read from it.

Experiments:
C. albicans SC5314 [1] = settings: SC5314, 6 h
Experimental: (§1) Selected Fc-peptides, or their asds, were preliminarily tested at the concentration of 100 µg/ml. […] Conventional colony forming unit (CFU) assays were performed as previously described [2]. Briefly, yeast cells from a fresh (20 h at 30°C) actively growing colony on Sabouraud Dextrose agar (SDA) (C. albicans, C. glabrata, C. neoformans) or on SDA supplemented with 1% Tween 20 (M. furfur) were suspended in 199 medium. Initial germination was induced in C. albicans cells by incubation for 1 h at 37°C with shaking. Suspensions were properly diluted to obtain approximately 500 fungal cells in 100 µl of distilled water in the presence or absence (control growth) of the synthetic Fc-peptide to be tested. Cell suspensions were incubated at 37°C for 6 h, then plated on SDA or SDA-Tween. CFU were enumerated after 48–72 h of incubation at 30°C, and peptide fungicidal activity was determined as percentage of CFU inhibition, according to the formula 100-(CFU Fc-peptide treated/CFU control growth)×100. Each assay was carried out in triplicate for statistical purposes.
(§2) EC50 was calculated by nonlinear regression analysis using Graph Pad Prism 4.01 software, San Diego, CA, USA.

C. albicans CA-6 = settings: CA-6, 6 h
Experimental: as §1, §2

C. albicans SA40 = settings: SA40, 6 h
Experimental: as §1, §2

C. albicans AIDS68 [2] = settings: AIDS68, 6 h
Experimental: as §1, §2

C. albicans UM4 = settings: UM4, 6 h
Experimental: as §1, §2

C. glabrata OMNI32 = settings: OMNI32, 6 h
Experimental: as §1, §2

C. neoformans 6995 = settings: 6995, 6 h
Experimental: as §1, §2

M. furfur 101 = settings: 6 h
Experimental: as §1, §2

C. albicans AIDS68 [3] = test: Experimental vaginal candidiasis in mice; assay type: in vivo, Candida albicans; settings: mice infected with C. albicans AIDS68; 100 µg in PBS at 1, 24, 48 h after challenge
C. albicans SC5314 [4] = test: CFU assay, in vitro fungicidal activity; settings: for EC50 asd/EC50 T11F / EC50 asd/EC50 N10K: ratio of EC50 values against C. albicans SC5314; for EC50: read-out: EC50 (95% confidence intervals), scalar dilutions, 6 h at 37°C in distilled water, nonlinear regression; for EC50 / % inhibitory activity at 100 µg/ml in comparison to the control growth (water): CFU assay, C. albicans SC5314, triplicate; for % inhibitory activity at 100 µg/ml in comparison to the control growth (water): peptide 100 µg/ml, ~500 cells in 100 µl distilled water, 6 h at 37°C
Experimental: as §1, §2

CC(C)C[C@H](NC(=O)[C@H](C)NC(=O)[C@H](CCC(=O)O)NC(=O)[C@@H](N)Cc1c[nH]cn1)C(=O)O [Peptide H4L] (H-HEAL-OH; N-terminus and C-terminus assumed)
% inhibitory activity at 100 µg/ml in comparison to the control growth (water) (C. albicans SC5314 [1]): 84.34% | % inhibitory activity at 100 µg/ml in comparison to the control growth (water) (C. albicans CA-6): 57.04% | % inhibitory activity at 100 µg/ml in comparison to the control growth (water) (C. albicans SA40): 55.99% | % inhibitory activity at 100 µg/ml in comparison to the control growth (water) (C. albicans AIDS68 [2]): 59.82% | % inhibitory activity at 100 µg/ml in comparison to the control growth (water) (C. albicans UM4): 64.63% | % inhibitory activity at 100 µg/ml in comparison to the control growth (water) (C. glabrata OMNI32): 80.49% | % inhibitory activity at 100 µg/ml in comparison to the control growth (water) (C. neoformans 6995): 85.08% | % inhibitory activity at 100 µg/ml in comparison to the control growth (water) (M. furfur 101): 92.04%

OC(Cn1cncn1)(Cn1cncn1)c1ccc(F)cc1F [fluconazole]
response of vaginal infection to treatment (C. albicans AIDS68 [3]): resistant to treatment

ACRVDHRGLTF [Peptide T1A]
% inhibitory activity at 100 µg/ml in comparison to the control growth (water) (C. albicans SC5314 [1]): 100% | EC50 asd/EC50 T11F (C. albicans SC5314 [4]): 0.48 | EC50 (C. albicans SC5314 [4]): 738 nM

AQVSLTCLVK [Peptide N1A]
EC50 (C. albicans SC5314 [1]): 587 nM | % inhibitory activity at 100 µg/ml in comparison to the control growth (water) (C. albicans SC5314 [1]): 100% | EC50 asd/EC50 N10K (C. albicans SC5314 [4]): 0.58

NAVSLTCLVK [Peptide Q2A]
EC50 (C. albicans SC5314 [1]): 2300 nM | % inhibitory activity at 100 µg/ml in comparison to the control growth (water) (C. albicans SC5314 [1]): 100% | EC50 asd/EC50 N10K (C. albicans SC5314 [4]): 2.30

NQASLTCLVK [Peptide V3A]
EC50 (C. albicans SC5314 [1]): 5930 nM | % inhibitory activity at 100 µg/ml in comparison to the control growth (water) (C. albicans SC5314 [4]): 100% | EC50 asd/EC50 N10K (C. albicans SC5314 [4]): 5.91

NQVALTCLVK [Peptide S4A]
EC50 (C. albicans SC5314 [1]): 2390 nM | % inhibitory activity at 100 µg/ml in comparison to the control growth (water) (C. albicans SC5314 [1]): 100% | EC50 asd/EC50 N10K (C. albicans SC5314 [4]): 2.38

NQVSATCLVK [Peptide L5A]
EC50 (C. albicans SC5314 [1]): 885 nM | % inhibitory activity at 100 µg/ml in comparison to the control growth (water) (C. albicans SC5314 [1]): 100% | EC50 asd/EC50 N10K (C. albicans SC5314 [4]): 0.88

NQVSLACLVK [Peptide T6A]
EC50 (C. albicans SC5314 [1]): 4880 nM | % inhibitory activity at 100 µg/ml in comparison to the control growth (water) (C. albicans SC5314 [1]): 100% | EC50 asd/EC50 N10K (C. albicans SC5314 [4]): 4.86

NQVSLTALVK [Peptide C7A]
EC50 (C. albicans SC5314 [1]): 54900 nM | % inhibitory activity at 100 µg/ml in comparison to the control growth (water) (C. albicans SC5314 [1]): 73.41% | EC50 asd/EC50 N10K (C. albicans SC5314 [4]): 54.66

NQVSLTCAVK [Peptide L8A]
EC50 (C. albicans SC5314 [1]): 744 nM | % inhibitory activity at 100 µg/ml in comparison to the control growth (water) (C. albicans SC5314 [4]): 100% | EC50 asd/EC50 N10K (C. albicans SC5314 [4]): 0.74

NQVSLTCLAK [Peptide V9A]
EC50 (C. albicans SC5314 [1]): 1780 nM | % inhibitory activity at 100 µg/ml in comparison to the control growth (water) (C. albicans SC5314 [1]): 100% | EC50 asd/EC50 N10K (C. albicans SC5314 [4]): 1.77

NQVSLTCLVA [Peptide K10A]
% inhibitory activity at 100 µg/ml in comparison to the control growth (water) (C. albicans SC5314 [1]): 0%

NQVSLTCLVK [Peptide N10K]
% inhibitory activity at 100 µg/ml in comparison to the control growth (water) (C. albicans SC5314 [1]): 100% | % inhibitory activity at 100 µg/ml in comparison to the control growth (water) (C. albicans CA-6): 100% | % inhibitory activity at 100 µg/ml in comparison to the control growth (water) (C. albicans SA40): 100% | % inhibitory activity at 100 µg/ml in comparison to the control growth (water) (C. albicans AIDS68 [2]): 100% | % inhibitory activity at 100 µg/ml in comparison to the control growth (water) (C. albicans UM4): 100% | % inhibitory activity at 100 µg/ml in comparison to the control growth (water) (C. glabrata OMNI32): 100% | % inhibitory activity at 100 µg/ml in comparison to the control growth (water) (C. neoformans 6995): 100% | % inhibitory activity at 100 µg/ml in comparison to the control growth (water) (M. furfur 101): 100%

TARVDHRGLTF [Peptide C2A]
% inhibitory activity at 100 µg/ml in comparison to the control growth (water) (C. albicans SC5314 [1]): 79.32% | EC50 asd/EC50 T11F (C. albicans SC5314 [4]): 21.12 | EC50 (C. albicans SC5314 [4]): 32500 nM

TCAVDHRGLTF [Peptide R3A]
% inhibitory activity at 100 µg/ml in comparison to the control growth (water) (C. albicans SC5314 [1]): 97.61% | EC50 asd/EC50 T11F (C. albicans SC5314 [4]): 8.74 | EC50 (C. albicans SC5314 [4]): 13500 nM

TCRADHRGLTF [Peptide V4A]
% inhibitory activity at 100 µg/ml in comparison to the control growth (water) (C. albicans SC5314 [1]): 100% | EC50 asd/EC50 T11F (C. albicans SC5314 [4]): 0.74 | EC50 (C. albicans SC5314 [4]): 1130 nM

TCRVAHRGLTF [Peptide D5A]
% inhibitory activity at 100 µg/ml in comparison to the control growth (water) (C. albicans SC5314 [1]): 100% | EC50 asd/EC50 T11F (C. albicans SC5314 [4]): 0.26 | EC50 (C. albicans SC5314 [4]): 395 nM

TCRVDARGLTF [Peptide H6A]
% inhibitory activity at 100 µg/ml in comparison to the control growth (water) (C. albicans SC5314 [1]): 100% | EC50 asd/EC50 T11F (C. albicans SC5314 [4]): 6.76 | EC50 (C. albicans SC5314 [4]): 10400 nM

TCRVDHAGLTF [Peptide R7A]
% inhibitory activity at 100 µg/ml in comparison to the control growth (water) (C. albicans SC5314 [1]): 100% | EC50 asd/EC50 T11F (C. albicans SC5314 [4]): 7.83 | EC50 (C. albicans SC5314 [4]): 12100 nM

TCRVDHRALTF [Peptide G8A]
% inhibitory activity at 100 µg/ml in comparison to the control growth (water) (C. albicans SC5314 [1]): 100% | EC50 asd/EC50 T11F (C. albicans SC5314 [4]): 1.01 | EC50 (C. albicans SC5314 [4]): 1550 nM

TCRVDHRGATF [Peptide L9A]
% inhibitory activity at 100 µg/ml in comparison to the control growth (water) (C. albicans SC5314 [1]): 100% | EC50 asd/EC50 T11F (C. albicans SC5314 [4]): 1.14 | EC50 (C. albicans SC5314 [4]): 1750 nM

TCRVDHRGLAF [Peptide T10A]
% inhibitory activity at 100 µg/ml in comparison to the control growth (water) (C. albicans SC5314 [1]): 100% | EC50 asd/EC50 T11F (C. albicans SC5314 [4]): 0.55 | EC50 (C. albicans SC5314 [4]): 850 nM

TCRVDHRGLTA [Peptide F11A]
% inhibitory activity at 100 µg/ml in comparison to the control growth (water) (C. albicans SC5314 [1]): 100% | EC50 asd/EC50 T11F (C. albicans SC5314 [4]): 1.64 | EC50 (C. albicans SC5314 [4]): 2520 nM

TCRVDHRGLTF [Peptide T11F]
% inhibitory activity at 100 µg/ml in comparison to the control growth (water) (C. albicans SC5314 [1]): 100% | % inhibitory activity at 100 µg/ml in comparison to the control growth (water) (C. albicans CA-6): 100% | % inhibitory activity at 100 µg/ml in comparison to the control growth (water) (C. albicans SA40): 100% | % inhibitory activity at 100 µg/ml in comparison to the control growth (water) (C. albicans AIDS68 [2]): 100% | % inhibitory activity at 100 µg/ml in comparison to the control growth (water) (C. albicans UM4): 100% | % inhibitory activity at 100 µg/ml in comparison to the control growth (water) (C. glabrata OMNI32): 100% | % inhibitory activity at 100 µg/ml in comparison to the control growth (water) (C. neoformans 6995): 100% | % inhibitory activity at 100 µg/ml in comparison to the control growth (water) (M. furfur 101): 100%
